Here are results for 21 molecules from ChEMBL document CHEMBL2074259, “Mouse reduced in osteosclerosis transporter functions as an organic anion transporter 3 and is localized at abluminal membrane of blood-brain barrier” (J Pharmacol Exp Ther, 2004).

Structures can show the parent of a compound that is named as a salt.

Data set [1] has as its target T1, Organic anion transporter 3 (Mus musculus, UniProt O88909).
T1 sequence (O88909 whole entry): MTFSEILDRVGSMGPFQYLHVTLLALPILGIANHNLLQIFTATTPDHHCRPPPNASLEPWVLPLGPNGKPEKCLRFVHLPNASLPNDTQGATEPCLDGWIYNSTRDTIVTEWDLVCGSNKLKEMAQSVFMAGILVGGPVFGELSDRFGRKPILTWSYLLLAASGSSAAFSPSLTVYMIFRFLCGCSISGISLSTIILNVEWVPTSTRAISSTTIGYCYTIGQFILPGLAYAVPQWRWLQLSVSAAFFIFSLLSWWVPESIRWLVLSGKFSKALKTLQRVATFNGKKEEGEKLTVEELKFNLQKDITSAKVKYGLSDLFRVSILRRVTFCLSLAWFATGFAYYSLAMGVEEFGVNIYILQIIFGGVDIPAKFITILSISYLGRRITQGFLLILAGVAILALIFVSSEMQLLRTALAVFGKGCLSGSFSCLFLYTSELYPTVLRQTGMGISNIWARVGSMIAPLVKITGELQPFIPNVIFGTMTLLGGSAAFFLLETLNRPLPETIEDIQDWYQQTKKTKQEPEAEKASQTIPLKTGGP
The experiment in a line: (§1) TP_TRANSPORTER: uptake in Oat3-expressing oocyte cells. It counts as functional, cell-based.

Data set [2] addresses T1, Organic anion transporter 3. The experiment in a line: TP_TRANSPORTER: inhibition of benzylpenicillin uptake by Homovanillic acid at a concentration of 1000uM in Oat3-expressing oocyte cells. Format: functional, cell-based. More on the design: scale not given: the % may be the effect or the level left.
Data set [3] deals with T2, Oat3 (organic anion transporter 3) (Mus musculus, UniProt O88909).
T2 sequence (O88909 whole entry): T1 sequence (O88909 whole entry)
The experiment in a line: in vitro. Conditions: Oat3-expressing oocytes, probe benzylpenicillin.

Data set [4] has as its target T1, Organic anion transporter 3. Kind of data set: TP_TRANSPORTER: inhibition of benzylpenicillin uptake by Methotrexate at a concentration of 1000uM in Oat3-expressing oocyte cells. Format: functional, cell-based. More on the design: scale not given: the % may be the effect or the level left.
Data set [5] addresses T2, Oat3 (organic anion transporter 3). Kind of data set: TP_TRANSPORTER: inhibition of benzylpenicillin uptake by Pravastatin at a concentration of 1000uM in Oat3-expressing oocyte cells. Format: functional, cell-based. More on the design: scale not given: the % may be the effect or the level left. As to conditions: Oat3-expressing oocytes, probe benzylpenicillin; read-out: Activity.

Data set [6] has the same target. Kind of data set: TP_TRANSPORTER: inhibition of benzylpenicillin uptake by Estradiol glucuronide sulfate at a concentration of 5uM in Oat3-expressing oocyte cells. Format: functional, cell-based. More on the design: scale not given: the % may be the effect or the level left. As to conditions: Oat3-expressing oocytes, probe benzylpenicillin; read-out: Activity.
In data set [7] the target is T1, Organic anion transporter 3. The experiment in a line: TP_TRANSPORTER: inhibition of benzylpenicillin uptake by 3'-Azido-3'-deoxythymidine at a concentration of 1000uM in Oat3-expressing oocyte cells. More on the design: scale not given: the % may be the effect or the level left. Format: functional, cell-based.
The target of data set [8] is T2, Oat3 (organic anion transporter 3). The experiment in a line: TP_TRANSPORTER: inhibition of benzylpenicillin uptake by Triiodothyronine at a concentration of 1000uM in Oat3-expressing oocyte cells. As to conditions: Oat3-expressing oocytes, probe benzylpenicillin; read-out: Activity. It counts as functional, cell-based. More on the design: scale not given: the % may be the effect or the level left.

Data set [9] shares this target. The experiment in a line: TP_TRANSPORTER: inhibition of benzylpenicillin uptake by Indoxyl sulfate at a concentration of 1000uM in Oat3-expressing oocyte cells. Format: functional, cell-based. More on the design: scale not given: the % may be the effect or the level left. Conditions: Oat3-expressing oocytes, probe benzylpenicillin; read-out: Activity.
Data set [10] concerns the target T1, Organic anion transporter 3. Kind of data set: TP_TRANSPORTER: inhibition of benzylpenicillin uptake by Estrone-3-sulfate at a concentration of 1000uM in Oat3-expressing oocyte cells. Format: functional, cell-based. More on the design: scale not given: the % may be the effect or the level left.
Data set [11] has the same target. Kind of data set: TP_TRANSPORTER: inhibition of benzylpenicillin uptake by 5-Hydroxyindole-3-acetic acid at a concentration of 1000uM in Oat3-expressing oocyte cells. It counts as functional, cell-based. More on the design: scale not given: the % may be the effect or the level left.
For data set [12] the target is unchanged. Kind of data set: TP_TRANSPORTER: inhibition of benzylpenicillin uptake by Bromosulfophthalein at a concentration of 1000uM in Oat3-expressing oocyte cells. It counts as functional, cell-based. More on the design: scale not given: the % may be the effect or the level left.
Data set [13] shares this target. The experiment in a line: TP_TRANSPORTER: inhibition of benzylpenicillin uptake by P-aminohippuric acid at a concentration of 1000uM in Oat3-expressing oocyte cells. More on the design: scale not given: the % may be the effect or the level left. Format: functional, cell-based.
Data set [14] has as its target T2, Oat3 (organic anion transporter 3). Kind of data set: TP_TRANSPORTER: inhibition of benzylpenicillin uptake by Urate at a concentration of 1000uM in Oat3-expressing oocyte cells. It counts as functional, cell-based. More on the design: scale not given: the % may be the effect or the level left. As to conditions: Oat3-expressing oocytes, probe benzylpenicillin; read-out: Activity.

For data set [15], the target named is T1, Organic anion transporter 3. The experiment in a line: TP_TRANSPORTER: inhibition of benzylpenicillin uptake by Indomethacin at a concentration of 1000uM in Oat3-expressing oocyte cells. Format: functional, cell-based. More on the design: scale not given: the % may be the effect or the level left.
Data set [16] has the same target. Kind of data set: TP_TRANSPORTER: inhibition of benzylpenicillin uptake by Probenecid at a concentration of 1000uM in Oat3-expressing oocyte cells. More on the design: scale not given: the % may be the effect or the level left. Format: functional, cell-based.
Data set [17] has the same target. The experiment in a line: TP_TRANSPORTER: inhibition of benzylpenicillin uptake by Estradiol sulfate at a concentration of 5uM in Oat3-expressing oocyte cells. Format: functional, cell-based. More on the design: scale not given: the % may be the effect or the level left.
The target is the same in data set [18]. The experiment in a line: TP_TRANSPORTER: inhibition of benzylpenicillin uptake by Prostaglandin E2 at a concentration of 1000uM in Oat3-expressing oocyte cells. It counts as functional, cell-based. More on the design: scale not given: the % may be the effect or the level left.
Data set [19] has the same target. The experiment in a line: TP_TRANSPORTER: inhibition of benzylpenicillin uptake in Oat3-expressing oocyte cells. Format: functional, cell-based. More on the design: scale not given: the % may be the effect or the level left.
Substrate in data set [20]: CC1(C)S[C@@H]2[C@H](NC(=O)Cc3ccccc3)C(=O)N2[C@H]1C(=O)O
Described as §1. It counts as functional, cell-based.

Substrate in data set [21]: C[C@]12CC[C@@H]3c4ccc(O)cc4CC[C@H]3[C@@H]1CC[C@@H]2O[C@@H]1O[C@H](C(=O)O)[C@@H](O)[C@H](O)[C@H]1O
Described as §1. It counts as functional, cell-based.

Take `O=C(O)c1ccccc1O` [SALICYLIC ACID]: the Activity result in data set [1] is “substrate []”.

`COc1cc(CC(=O)O)ccc1O` [HOMOVANILLIC ACID]: the Activity in data set [2] was 40.9%; in data set [1] it was “substrate []”. As for `O=C(O)CCCC(=O)O` [GLUTARATE], the Activity entry in [1] is “substrate []”.

Turning to `CN/C(=N/CCSCc1nc[nH]c1C)NC#N` [CIMETIDINE], in data set [3], the activity at 1000 µM was 6.88%. Besides, the Activity result in data set [1] is “substrate []”. For the molecule `CN(Cc1cnc2nc(N)nc(N)c2n1)c1ccc(C(=O)N[C@@H](CCC(=O)O)C(=O)O)cc1` [METHOTREXATE], the Activity entry in [1] was “substrate []”; in data set [4] it was 48.4%. As for `CC[C@H](C)C(=O)O[C@H]1C[C@H](O)C=C2C=C[C@H](C)[C@H](CC[C@@H](O)C[C@@H](O)CC(=O)O)[C@H]21` [PRAVASTATIN], the activity at 1000 µM in data set [5] turned out to be 2.85%. On to `C[C@]12CC[C@@H]3c4ccc(OS(=O)(=O)O)cc4CC[C@H]3[C@@H]1CC[C@@H]2O[C@@H]1O[C@H](C(=O)O)[C@@H](O)[C@H](O)[C@H]1O` [ESTRADIOL GLUCURONIDE SULFATE], for which the activity at 5 µM in [6] worked out at 62.4%. Regarding `Cc1cn([C@H]2C[C@H](N=[N+]=[N-])[C@@H](CO)O2)c(=O)[nH]c1=O` [ZIDOVUDINE], the Activity in data set [7] stood at 5.13%.

As to `N[C@@H](Cc1cc(I)c(Oc2ccc(O)c(I)c2)c(I)c1)C(=O)O` [LIOTHYRONINE], the activity at 1000 µM in data set [8] amounted to 39.8%. With `O=S(=O)(O)Oc1c[nH]c2ccccc12` [INDOXYL SULFATE], the Activity result in [1] was “substrate []”. The activity at 1000 µM in data set [9] is 21.9%. For `C[C@]12CC[C@@H]3c4ccc(OS(=O)(=O)O)cc4CC[C@H]3[C@@H]1CCC2=O` [ESTRONE SULFURIC ACID], the Activity entry in [1] was “substrate []”; in data set [10], 11.4%. `O=C(O)Cc1c[nH]c2ccc(O)cc12` had an Activity in data set [11] of 21.7%.

On to `O=C1OC(c2ccc(O)c(S(=O)(=O)[O-])c2)(c2ccc(O)c(S(=O)(=O)[O-])c2)c2c(Br)c(Br)c(Br)c(Br)c21.[Na+].[Na+]` [SULFOBROMOPHTHALEIN SODIUM], for which the Activity in data set [12] was 2.54%. With `Nc1ccc(C(=O)NCC(=O)O)cc1` [AMINOHIPPURIC ACID], the Activity result in [1] was “substrate []”; in data set [13], 14.2%. As to `O=c1[nH]c(=O)c2[nH]c(=O)[nH]c2[nH]1` [URIC ACID], the activity at 1000 µM in data set [14] came to 19.9%. Take `COc1ccc2c(c1)c(CC(=O)O)c(C)n2C(=O)c1ccc(Cl)cc1` [INDOMETHACIN]: the Activity result in data set [1] was “substrate []”; in [15], 1.32%.

Turning to `CCCN(CCC)S(=O)(=O)c1ccc(C(=O)O)cc1` [PROBENECID], the Activity in data set [16] was found to be 0.625%. `C[C@]12CC[C@@H]3c4ccc(O)cc4CC[C@H]3[C@@H]1CC[C@H]2O.O=S(=O)(O)O` came in with an Activity in data set [17] of 65.5%.

With `CCCCC[C@H](O)/C=C/[C@H]1[C@H](O)CC(=O)[C@@H]1C/C=C\CCCC(=O)O` [DINOPROSTONE], the Activity in data set [18] is recorded as 0.101%.

As to `O=C(O)[C@H]1O[C@@H](Oc2c[nH]c3ccccc23)[C@H](O)[C@@H](O)[C@@H]1O` [INDOXYL GLUCURONIDE], in data set [19], the Activity was found to be 72.3%.

B1: Organic anion transporter 3 (Mus musculus) (protein)
chain: T1 sequence (O88909 whole entry)
What is called Km is the concentration of substrate that gives half-maximal velocity. In the case of B1, the Km in [20] amounted to 40 µM; in data set [21], 5.5 µM.
